System: groundwater microorganisms
Details: both DNAPL test sites (MW-12R, RW-1)
Excerpt: The test sites are located at a property where fractured bedrock has been contaminated with PCE and TCE DNAPL to a depth of approximately 120 feet below ground surface.

## CC(=O)O [acetic acid]
After injection of acetic acid, FIG. 4
  adaptation of groundwater microorganisms: increased
Fractured bedrock, after vs before injection of acetic acid, FIG. 3
  change in biomass of groundwater microorganisms: increased

Reference: US20030224503A1, “In-situ microorganism generation for treating subsurface DNAPL source zones” (priority 2002, published 2003)
